Assay results taken from US20030215899A1, “Reversible oxidation of protein tyrosine phosphatases” (CEPTYR, Inc., priority 2002, published 2003).
Entries after “also recorded” stand apart in the source; their conditions may differ.

Legend:
SHP-2 (E76A mutant) = SHP-2 (E76A mutant) (Homo sapiens, UniProt Q06124, E76A); type: biochemical
PTPs in Rat-1 cells = experiment: modified in-gel PTP activity assay of Rat-1 cell lysates; type: cell-based
Excerpt: To determine whether ROS stimulated intracellular tyrosine phosphorylation through the oxidation and inhibition of cellular PTPs, a modified in-gel PTP activity assay was devised, as follows: As substrate, poly (4:1) Glu-Tyr (Sigma) was labeled with [γ-^32P]-ATP using the GST-FER fusion PTK, as described previously (Shen et al., 1998 J. Biol. Chem. 273:6474-81). The labeled substrates were used within three weeks to limit the variation of its specific activity from experiment to experiment. The lysis buffer (25 mM CH3COONa, 1% NP-40, 150 mM NaCl, 10% glycerol, pH 5.5) was degassed at 4° C. for overnight, before catalase and superoxide dismutase (both 100 μg/ml), protease inhibitors and 10 mM iodoacetic acid (IAA) were added. Following stimulation, cells were lysed under anaerobic conditions in an argon chamber. Lysates (25 μg) were processed as described herein and an “in-gel” phosphatase assay (Burridge and Nelson, 1995) was conducted using SDS-PAGE gels containing a radioactively-labeled substrate (1.5×10^6 cpm/20 ml gel solution, approximately 2 μM p-Tyr).
Cells were triggered with the appropriate stimulus and harvested under anaerobic conditions in lysis buffer containing IAA. Those PTPs that had not encountered ROS in the cell became irreversibly inactivated by alkylation of their active site Cys with IAA. However, in contrast, any PTPs in which the active site Cys had been oxidized in response to the stimulus were resistant to alkylation. For the “in-gel” phosphatase assay, a 10% SDS-PAGE gel was cast containing a radioactively-labeled substrate. An aliquot of cell lysate was subjected to SDS-PAGE and proteins in the gel were sequentially denatured, then renatured in the presence of reducing reagents. […] The reaction was then terminated by fixing, staining and destaining the gel. Finally the gel was dried and exposed to film. The presence of a PTP was visualized by substrate dephosphorylation, as the appearance of a clear, white area on the black background of labeled substrate.

[1] = test system: PTPs in peripheral blood mononuclear lymphocytes; experiment: in-gel protection assay, PHA-stimulated peripheral blood mononuclear lymphocytes; type: cell-based, human; settings: 50 mM IAA, cells without ASBA-1 pretreatment
Description: Peripheral blood mononuclear lymphocytes were purified from human blood. In 5 ml media (RPMI), 2×10^7 cells were incubated in 50 μM ASBA-1 (PTP specific inhibitor) for 90 minutes and stimulated with phytohemagglutinin (PHA, 0.5 μL of 5.0 mg/ml stock) for 2, 10 or 30 min. […] Desalted proteins were separated on a 2 ml Source Q anion exchange column (Amersham Pharmacia Biotech) using a 0-1M NaCl gradient in 20 mM Tris, pH 7.5; 1 mM EDTA; 0.05% Triton X-100.

PTP1B (50 kDa PTP) = target: T1, PTP1B (50 kDa PTP) (Rattus norvegicus, UniProt P20417); experiment: modified in-gel PTP assay (RCML substrate), insulin stimulated Rat-1 cells; type: cell-based; settings: 50 nM insulin, serum-starved Rat-1 cells
T1 construct: endogenous in cells; host or cells: Rat-1 fibroblasts
T1 sequence (P20417 1-432): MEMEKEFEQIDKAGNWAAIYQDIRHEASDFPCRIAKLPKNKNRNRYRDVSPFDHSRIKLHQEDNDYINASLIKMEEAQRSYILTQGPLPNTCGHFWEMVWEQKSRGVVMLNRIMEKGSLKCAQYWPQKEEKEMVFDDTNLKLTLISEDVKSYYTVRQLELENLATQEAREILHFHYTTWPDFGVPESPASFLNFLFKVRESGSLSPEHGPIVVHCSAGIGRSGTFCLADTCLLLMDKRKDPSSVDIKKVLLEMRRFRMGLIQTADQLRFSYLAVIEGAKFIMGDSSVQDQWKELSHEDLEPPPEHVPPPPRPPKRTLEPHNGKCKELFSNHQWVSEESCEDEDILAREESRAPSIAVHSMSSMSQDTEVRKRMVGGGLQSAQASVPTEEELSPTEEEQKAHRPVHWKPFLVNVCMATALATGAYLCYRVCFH
Description: (§1) The effect of insulin-induced H2O2 production on PTP oxidation was examined using the modified in-gel PTP assay essentially as described in Example 1. Serum-starved Rat-1 cells were exposed to 50 nM insulin for 2, 5, 10, 20, and 30 minutes. Lysates were prepared under anaerobic conditions in the presence of 10 mM IAA and then subjected to in-gel PTP assays. The substrate incorporated into the SDS-PAGE gels for these assays was ^32P-labeled reduced, carboxamidomethylated and maleylated lysozyme (RCML) (1.5×10^6 cpm/20 ml gel solution, ˜2 μM p-Tyr).
(§2) The oxidized 45 kDa and 50 kDa PTPs were identified as TC-45 and PTP1B, respectively, by immunodepletion and immunoblotting. Total cell lysates were prepared as described in Example 1. Lysate (400 μg) was incubated with normal IgG, anti-PTP1B antibody (FG6, LaMontagne et al., Mol. Cell. Biol. 18:2965-75 (1998)), or anti-TC45 antibody (1910H, Lorenzen et al., J. Cell. Biol. 131:631-43 (1995)) coupled to protein G-Sepharose ^T beads (Amersham Biosciences). After the immunoprecipitation step, the immune complexes and supernatants were collected and subjected to in-gel PTP assays. Immunodepletion of the 50 kDa PTP from the lysate with anti-PTP1B antibody is shown in FIG. 11B, and immunodepletion of the 45 kDa PTP with antibody specific for TC45 is shown in FIG. 11C. […]

TC45 (45 kDa PTP) = target: T2, TC45 (45 kDa PTP) (Rattus norvegicus, UniProt P35233); experiment: as above; type: cell-based; settings: 50 nM insulin, serum-starved Rat-1 cells
T2 construct: endogenous in cells; host or cells: Rat-1 fibroblasts
T2 sequence (P35233 1-382 isoform P35233-2): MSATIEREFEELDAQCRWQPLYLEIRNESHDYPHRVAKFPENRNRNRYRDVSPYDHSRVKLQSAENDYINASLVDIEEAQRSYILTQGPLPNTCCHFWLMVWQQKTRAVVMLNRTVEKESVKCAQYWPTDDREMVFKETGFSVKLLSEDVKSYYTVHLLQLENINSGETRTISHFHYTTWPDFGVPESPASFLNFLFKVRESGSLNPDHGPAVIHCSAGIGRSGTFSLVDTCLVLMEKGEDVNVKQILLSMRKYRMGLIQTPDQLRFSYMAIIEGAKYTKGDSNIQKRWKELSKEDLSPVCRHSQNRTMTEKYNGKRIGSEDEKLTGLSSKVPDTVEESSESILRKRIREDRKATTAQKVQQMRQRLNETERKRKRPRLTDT
Description: as §1, §2

With `O=C(O)CI` [IAA, iodoacetic acid] the “inactivation of purified SHP-2” value (SHP-2 (E76A mutant)) was “inactivated by IAA”, the “inactivation of PTPs in lysate by alkylation” value (PTPs in Rat-1 cells) was “effectively inactivated PTPs” and the “inactivation of PTPs” value [1] was “inactivated by IAA”.
With “insulin: polypeptide hormone used as stimulus” the “oxidation of 50 kDa PTP (PTP1B)” value (PTP1B (50 kDa PTP)) was “transiently oxidized; also recorded: induced the transient oxidation” and the “oxidation of 45 kDa PTP (TC45)” value (TC45 (45 kDa PTP)) was “transiently oxidized; also recorded: induced the transient oxidation”.
